Data reported in PubChem BioAssay (NCI).
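Assay format: 96-well plates, 48-hour exposure. Definition used: TGI = concentration required for complete inhibition of growth.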 Where a SMILES comes first, the peptide text is derived from it. The star is where a group is joined. Boc = CC(C)(C)OC(=O)*; OSu = O=C1CCC(=O)N1O*

Key:
Test in all cases: inhibition of tumour cell growth, NCI panel, 48 h
[1] = test system: SF-295 CNS
[2] = test system: DU-145 prostate
[3] = test system: MALME-3M melanoma
[4] = test system: NCI-H522 lung
[5] = test system: UACC-257 melanoma
[6] = test system: CAKI-1 renal
[7] = test system: BT-549 breast
[8] = test system: RXF 393 renal
[9] = test system: HCT-116 colon
[10] = test system: T-47D breast
[11] = test system: NCI-H460 lung
[12] = test system: 786-0 renal
[13] = test system: EKVX NSCLC
[14] = test system: SK-MEL-5 melanoma
[15] = test system: HOP-92 NSCLC
[16] = test system: SNB-75 CNS
[17] = test system: HCT-15 colon
[18] = test system: SW-620 colon
[19] = test system: U251 CNS
[20] = test system: HOP-62 NSCLC
[21] = test system: A549 NSCLC
[22] = test system: SNB-19 CNS
[23] = test system: NCI-H226 lung
[24] = test system: HT29 colon
[25] = test system: IGROV1 ovarian
[26] = test system: SR leukemia
[27] = test system: NCI-H23 lung
[28] = test system: PC-3 prostate
[29] = test system: OVCAR-5 ovarian
[30] = test system: SK-MEL-2 melanoma
[31] = test system: MOLT-4 leukemia
[32] = test system: SF-268 CNS
[33] = test system: COLO 205 colon
[34] = test system: UACC-62 melanoma
[35] = test system: M14 melanoma
[36] = test system: MDA-MB-231 breast
[37] = test system: TK-10 renal
[38] = test system: KM12 colon
[39] = test system: HCC-2998 colon
[40] = test system: OVCAR-3 ovarian
[41] = test system: SF-539 CNS
[42] = test system: UO-31 renal
[43] = test system: SK-OV-3 ovarian
[44] = test system: MCF7 breast
[45] = test system: ACHN renal
[46] = test system: SK-MEL-28 melanoma
[47] = test system: MDA-N
[48] = test system: K-562 leukemia
[49] = test system: RPMI-8226 leukemia
[50] = test system: SN12C renal
[51] = test system: OVCAR-8 ovarian
[52] = test system: MDA-MB-435
[53] = test system: NCI/ADR-RES ovarian

Measured: TGI

CC(NC(=O)C(NC(=O)OC(C)(C)C)C(C)C)C(=O)NCC(=O)ON1C(=O)CCC1=O (stereo not drawn) (Boc-Val-Ala-Gly-OSu; configuration not given here)
> 100 µM: all assays above
